Biological target: T1, Human glucocorticoid receptors (Homo sapiens, UniProt P04150)
T1 construct: made in house; host or cells: Sf9 insect cells, recombinant baculovirus (BAC-TO-BAC)
T1 sequence (P04150 1-777): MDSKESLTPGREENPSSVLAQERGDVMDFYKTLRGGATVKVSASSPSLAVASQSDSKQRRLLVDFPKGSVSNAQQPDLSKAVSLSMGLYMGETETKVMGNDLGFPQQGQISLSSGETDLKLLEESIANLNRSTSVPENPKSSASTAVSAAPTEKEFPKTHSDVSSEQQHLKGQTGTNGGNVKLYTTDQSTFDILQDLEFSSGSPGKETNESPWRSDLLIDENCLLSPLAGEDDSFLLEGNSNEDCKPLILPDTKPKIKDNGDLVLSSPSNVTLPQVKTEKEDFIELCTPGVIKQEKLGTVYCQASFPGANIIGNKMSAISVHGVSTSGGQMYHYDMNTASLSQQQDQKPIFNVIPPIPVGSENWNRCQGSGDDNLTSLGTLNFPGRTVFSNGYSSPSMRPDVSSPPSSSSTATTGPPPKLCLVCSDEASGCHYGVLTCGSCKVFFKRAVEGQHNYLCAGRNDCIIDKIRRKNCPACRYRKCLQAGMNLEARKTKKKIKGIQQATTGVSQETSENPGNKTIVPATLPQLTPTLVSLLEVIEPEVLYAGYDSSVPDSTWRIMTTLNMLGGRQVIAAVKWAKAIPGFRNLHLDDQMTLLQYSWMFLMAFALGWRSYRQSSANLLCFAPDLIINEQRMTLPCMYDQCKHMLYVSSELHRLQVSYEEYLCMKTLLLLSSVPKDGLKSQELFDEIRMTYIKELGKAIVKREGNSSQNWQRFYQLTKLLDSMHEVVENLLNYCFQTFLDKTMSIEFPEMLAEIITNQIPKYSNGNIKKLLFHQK
Experiment: Radioligand filter binding assay, displacement of 3[H]-dexamethasone from hGR
Conditions: read-out: GR Binding (% Inhibition at 1.7 μM)
Summary of the method: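 Recombinant hGR extract from baculovirus-infected Sf9 cells (final ~1 nM receptor) incubated with ³H-dexamethasone and test compound dilutions in duplicate, EDTA/phosphate pH 8 buffer with MTG, overnight (15-20 h) at +4° C. Bound label collected on PEI-treated GF/B filters and scintillation-counted; IC50 from four-parameter fit of corrected cpm.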

Row | SMILES | inhibition at 1.7 µM [%]
1 | Cc1c(NS(C)(=O)=O)cccc1N(Cc1ccccc1)Cc1ccc(Oc2cccc(OCCCC(=O)N3CCC[C@H]3C(=O)O)c2)cc1 [Example 282, 1-[4-(3-{4-[(benzyl{2-methyl-3-[(methylsulfonyl)amino]phenyl}amino)methyl]phenoxy}phenoxy)butanoyl]proline] | 89.9
2 | Cc1c(NS(C)(=O)=O)cccc1N(Cc1ccccc1)Cc1ccc(Oc2cccc(OCC3(C)COC3)c2)cc1 [Example 283, N-{3-[benzyl(4-{3-[(3-methyloxetan-3-yl)methoxy]phenoxy}benzyl)amino]-2-methylphenyl}methanesulfonamide] | 89.7
3 | Cc1c(NS(C)(=O)=O)cccc1N(Cc1ccccc1)Cc1ccc(Oc2cccc(OCC3CC3C(=O)O)c2)cc1 (centres unmarked) [Example 284, 2-[(3-{4-[(benzyl{2-methyl-3-[(methylsulfonyl)amino]phenyl}amino)methyl]phenoxy}phenoxy)methyl]cyclopropanecarboxylic acid] | 89.6
4 | Cc1c(NS(C)(=O)=O)cccc1N(Cc1ccccc1)Cc1ccc(Oc2cccc(OC[C@H](O)CO)c2)cc1 [Example 285, N-(3-{benzyl[4-(3-{[(2R)-2,3-dihydroxypropyl]oxy}phenoxy)benzyl]amino}-2-methylphenyl)methanesulfonamide] | 89.7
5 | Cc1c(NS(C)(=O)=O)cccc1N(Cc1ccccc1)Cc1ccc(Oc2cccc(OC3CCC(C(=O)O)CC3)c2)cc1 (centres unmarked) [Example 286, 4-(3-{4-[(benzyl{2-methyl-3-[(methylsulfonyl)amino]phenyl}amino)methyl]phenoxy}phenoxy)cyclohexanecarboxylic acid] | 92.6
6 | Cc1c(NS(C)(=O)=O)cccc1N(Cc1ccccc1)Cc1ccc(Oc2cccc(OC3CCOCC3)c2)cc1 [Example 287, N-[3-(benzyl{4-[3-(tetrahydro-2H-pyran-4-yloxy)phenoxy]benzyl}amino)-2-methylphenyl]methanesulfonamide] | 89.2
7 | Cc1c(NS(C)(=O)=O)cccc1N(Cc1ccccc1)Cc1ccc(Oc2cccc(OC3CCOC3)c2)cc1 (centres unmarked) [Example 288, N-[3-(benzyl{4-[3-(tetrahydrofuran-3-yloxy)phenoxy]benzyl}amino)-2-methylphenyl]methanesulfonamide] | 89.8
8 | Cc1c(NS(C)(=O)=O)cccc1N(Cc1ccccc1)Cc1ccc(Oc2cccc(OC[C@@H]3CCCN3C)c2)cc1 [Example 289, N-(3-{benzyl[4-(3-{[(2S)-1-methylpyrrolidin-2-yl]methoxy}phenoxy)benzyl]amino}-2-methylphenyl)methanesulfonamide] | 87.8
9 | Cc1c(NS(C)(=O)=O)cccc1N(Cc1ccccc1)Cc1ccc(Oc2cccc(OCc3cccnc3)c2)cc1 [Example 290, N-[3-(benzyl{4-[3-(pyridin-3-ylmethoxy)phenoxy]benzyl}amino)-2-methylphenyl]methanesulfonamide] | 89.1
10 | Cc1c(NS(C)(=O)=O)cccc1N(Cc1ccccc1)Cc1ccc(Oc2cccc(OC[C@@H]3CCCN3)c2)cc1 [Example 291, N-{3-[benzyl(4-{3-[(2S)-pyrrolidin-2-ylmethoxy]phenoxy}benzyl)amino]-2-methylphenyl}methanesulfonamide] | 87.7
11 | Cc1c(NS(C)(=O)=O)cccc1N(Cc1ccccc1)Cc1ccc(Oc2cccc(OC3CCN(C)C3)c2)cc1 (centres unmarked) [Example 292, N-{3-[benzyl(4-{3-[(1-methylpyrrolidin-3-yl)oxy]phenoxy}benzyl)amino]-2-methylphenyl}methanesulfonamide] | 89.4
12 | Cc1c(NS(C)(=O)=O)cccc1N(Cc1ccc(Oc2ccc(Cl)c(OCC(=O)O)c2)cc1)Cc1ccc(Cl)cc1Cl [Example 309, (2-chloro-5-(4-(((2,4-dichlorobenzyl)(2-methyl-3-((methylsulfonyl)amino)phenyl)amino)methyl)phenoxy)phenoxy)acetic acid] | 97.4
13 | Cc1c(NS(C)(=O)=O)cccc1N(Cc1ccc(Oc2ccc(Cl)c(OCC(=O)NCC(=O)O)c2)cc1)Cc1ccc(F)cc1F [Example 316, N-((2-chloro-5-(4-(((2,4-difluorobenzyl)(2-methyl-3-((methylsulfonyl)amino)phenyl)amino)methyl)phenoxy)phenoxy)acetyl)glycine] | 96.3
14 | Cc1c(NS(C)(=O)=O)cccc1N(Cc1ccc(Oc2ccc(Cl)c(OCC(=O)NCCC(=O)O)c2)cc1)Cc1ccc(F)cc1F [Example 317, N-((2-chloro-5-(4-(((2,4-difluorobenzyl)(2-methyl-3-((methylsulfonyl)amino)phenyl)amino)methyl)phenoxy)phenoxy)acetyl)-beta-alanine] | 96.5
15 | Cc1c(NS(C)(=O)=O)cccc1N(Cc1ccc(Oc2ccc(Cl)c(OCC(=O)NCCCC(=O)O)c2)cc1)Cc1ccc(F)cc1F [Example 318, 4-(((2-chloro-5-(4-(((2,4-difluorobenzyl)(2-methyl-3-((methylsulfonyl)amino)phenyl)amino)methyl)phenoxy)phenoxy)acetyl)amino)butanoic acid] | 95.1
16 | Cc1c(NS(C)(=O)=O)cccc1N(Cc1ccc(Oc2ccc(Cl)c(OCCCC(=O)NCCCC(=O)O)c2)cc1)Cc1ccc(F)cc1F [Example 320, 4-((4-(2-chloro-5-(4-(((2,4-difluorobenzyl)(2-methyl-3-((methylsulfonyl)amino)phenyl)amino)methyl)phenoxy)phenoxy)butanoyl)amino)butanoic acid] | 96.8

More lines, now with the values ahead:

Row | inhibition at 1.7 µM [%] | SMILES
17 | 97 | Cc1c(NS(C)(=O)=O)cccc1N(Cc1ccc(Oc2ccc(Cl)c(OCC(=O)O)c2)cc1)Cc1ccccc1F [Example 306, (2-chloro-5-(4-(((2-fluorobenzyl)(2-methyl-3-((methylsulfonyl)amino)phenyl)amino)methyl)phenoxy)phenoxy)acetic acid]
18 | 97 | Cc1c(NS(C)(=O)=O)cccc1N(Cc1ccc(Oc2ccc(Cl)c(OCC(=O)O)c2)cc1)Cc1ccccc1Br [Example 307, (5-(4-(((2-bromobenzyl)(2-methyl-3-((methylsulfonyl)amino)phenyl)amino)methyl)phenoxy)-2-chlorophenoxy)acetic acid]
19 | 95.7 | Cc1c(NS(C)(=O)=O)cccc1N(Cc1ccc(Br)cc1)Cc1ccc(Oc2ccc(Cl)c(OCC(=O)O)c2)cc1 [Example 308, (5-(4-(((4-bromobenzyl)(2-methyl-3-((methylsulfonyl)amino)phenyl)amino)methyl)phenoxy)-2-chlorophenoxy)acetic acid]
20 | 97.5 | Cc1c(NS(C)(=O)=O)cccc1N(Cc1ccc(Oc2ccc(Cl)c(OCC(=O)O)c2)cc1)Cc1ccc(Cl)cc1F [Example 310, (2-chloro-5-(4-(((4-chloro-2-fluorobenzyl)(2-methyl-3-((methylsulfonyl)amino)phenyl)amino)methyl)phenoxy)phenoxy)acetic acid]
21 | 97.4 | Cc1c(NS(C)(=O)=O)cccc1N(Cc1ccc(Oc2ccc(Cl)c(OCC(=O)O)c2)cc1)Cc1ccc(F)cc1Cl [Example 311, (2-chloro-5-(4-(((2-chloro-4-fluorobenzyl)(2-methyl-3-((methylsulfonyl)amino)phenyl)amino)methyl)phenoxy)phenoxy)acetic acid]
22 | 97.3 | Cc1c(NS(C)(=O)=O)cccc1N(Cc1ccc(Oc2ccc(Cl)c(OCC(=O)O)c2)cc1)Cc1ccc(Cl)cc1Br [Example 312, (5-(4-(((2-bromo-4-chlorobenzyl)(2-methyl-3-((methylsulfonyl)amino)phenyl)amino)methyl)phenoxy)-2-chlorophenoxy)acetic acid]
23 | 96.3 | Cc1c(NS(C)(=O)=O)cccc1N(Cc1ccc(Oc2ccc(Cl)c(OCC(=O)O)c2)cc1)Cc1ccc(F)c(F)c1 [Example 313, (2-chloro-5-(4-(((3,4-difluorobenzyl)(2-methyl-3-((methylsulfonyl)amino)phenyl)amino)methyl)phenoxy)phenoxy)acetic acid]
24 | 96.6 | Cc1c(NS(C)(=O)=O)cccc1N(Cc1ccc(Oc2ccc(Cl)c(OCC(=O)O)c2)cc1)Cc1ccc(C(=O)c2ccccc2)cc1 [Example 314, (5-(4-(((4-benzoylbenzyl)(2-methyl-3-((methylsulfonyl)amino)phenyl)amino)methyl)phenoxy)-2-chlorophenoxy)acetic acid]
25 | 97 | Cc1c(NS(C)(=O)=O)cccc1N(Cc1ccc(Oc2ccc(Cl)c(OCC(=O)O)c2)cc1)Cc1ccc(Br)cc1F [Example 315, (5-(4-(((4-bromo-2-fluorobenzyl)(2-methyl-3-((methylsulfonyl)amino)phenyl)amino)methyl)phenoxy)-2-chlorophenoxy)acetic acid]
26 | 96.4 | Cc1c(NS(C)(=O)=O)cccc1N(Cc1ccccc1)Cc1ccc(Oc2ccc(Cl)c(OCCCC(=O)NCCCC(=O)O)c2)cc1 [Example 319, 4-((4-(5-(4-((benzyl(2-methyl-3-((methylsulfonyl)amino)phenyl)amino)methyl)phenoxy)-2-chlorophenoxy)butanoyl)amino)butanoic acid]
